The values that follow come from PMC5325331, “A steroid like phytochemical Antcin M is an anti-aging reagent that eliminates hyperglycemia-accelerated premature senescence in dermal fibroblasts by direct activation of Nrf2 and SIRT-1” (Oncotarget, 2016).

For test [1], the system named is HNDFs. Kind of test: Cytotoxicity of antcins against HNDFs (MTT assay). It is filed as cell-based, human. To be noted: Homo sapiens, 72 h, read-out: IC50 (50% inhibitory concentration) against HNDFs. The protocol:
Figure 2 Effects of antcins on HG-induced senescence in HNDFs A. Type of antcins subjected to screen for potential anti-aging agents for skin aging. Names and chemical structures of the antcins are shown in the left and centrer column, respectively. The cytotoxic effects of antcins against HNDFs. Briefly, HNDFs were incubated with increasing concentrations (1, 5, 10 and 20 μM) of antcins including antcin A, antcin B, antcin C, antcin H, anticn K and antcin M for 72 h and the cell viability was determined by MTT assay. The 50% inhibitory concentrations (IC50) of each compound against HNDFs are shown in right column. B. Cells were incubated with antcin A (10 μM), antcin H (10 μM) and antcin M (10 μM) in the presence of HG (30 mM) for 72 h. Cellular senescence was determined by SA-β-gal activity. […] C. HNDFs were incubated with antcin A (10 μM), antcin H (10 μM) and antcin M (10 μM) in the presence of HG (30 mM) for 72 h. Senescence-associated marker proteins such as p16^INK4A, p21^CIP1 and SMP30 were determined by western blot analysis. D. To determine the effect of antcins on cell proliferation efficacy, HNDFs 5 × 10^4 cells/well in 6-well plates were incubated with antcins in the presence of HG (30 mM) for 72 h. Number of viable cells were quantified by the tryphan blue exclusion method. Results are expressed as mean ± S.E.M of three indipendent expriments. Statistical significance was et at ^ФP < 0.05 compared to NG vs HG and *P < 0.05 compared to HG vs. samples.
Human normal dermal fibroblasts (HNDFs, CCD966SK) and human umbilical vein endothelial cells (HUVECs) were obtained from the Bioresource Collection and Research Center (BCRC), Hsinchu, Taiwan. HNDFs were grown in MEM containing 10% FBS, 2 mM L-glutamine, 100 U/mL penicillin and streptomycin at 37°C in a fully humidified atmosphere of 5% CO2. Likewise, HUVECs were grown in M-199 medium supplemented with ECGS, heparin, 10% FBS and 100 U/mL penicillin and streptomycin at 37°C in a fully humidified atmosphere of 5% CO2. High-glucose treatment was performed by treating cells with 15 or 30 mM D-glucose (HG) for 24-72 h.
Cell viability was assessed by MTT colorimetric assay. Briefly, HNDFs (2 × 10^4 cells/well) or HUVECs (5 × 10^4 cells/well) were seeded in a 24-well culture plate. After treatment with HG (15 and 30 mM) in the presence or absence of samples for 24-72 h, culture media was withdrawn and incubated with MTT (1 mg/mL) in fresh medium for 2 h. The MTT formazan crystals were dissolved in 400 μL of DMSO and the samples were measured at 570 nm […] using an ELISA microplate reader (Bio-Tek Instruments, Winooski, VT). The percentage of cell viability (%) was calculated as (A570 of treated cells/A570 of untreated cells) × 100.
For orientation: Tetrazolium assays rely on reduction of a dye to a coloured formazan, in cell work by metabolically active cells.

Test [2] relates to HNDFs. As to the kind of experiment: Cell-cycle analysis by flow cytometry (PI) in HG-induced HNDFs. It is filed as cell-based, human. To be noted: ANM 10 μM with HG (30 mM) for 72 h; HG 71.2%, NG 46.5%. The protocol:
HNDFs at a density of 5 × 10^5 cells in 10 cm dishes were treated with ANM or NAC in the presence or absence of HG for 72 h. Cells were collected, washed with PBS and fixed in 95% cold-ethanol, and kept at −20°C overnight. The cell pellet was then washed again with PBS and centrifuged at 1500 × g for 5 min. The pellet was re-suspended in 1 mL PI/Triton X-100 (20 μg/mL PI, 0.1% Triton X-100 and 0.2 mg/mL RNAse) and incubated on ice for 30 min. The total cellular DNA content was analyzed with a flow cytometer (Beckman Coulter FC500). Data were acquired and analyzed using CXP software (Beckman Coulter).

The nature of test [3]: Cell-free DPPH free-radical scavenging assay.
Protocol: Therefore, next to determine whether ANM acts directly as a free-radical scavenger, we performed a cell-free DPPH free-radical scavenging assay.
Figure 5 Antcin M activates Nrf2-dependent anti-oxidant defense in HNDFs A. To determine the free-radical scavenging effect of ANM, cell-free DPPH assay was performed. […] Results expressed as mean ± S.E.M of three indipendent expriments.
For test [4], the system named is Nrf2 transcriptional activity (ARE promoter). Kind of test: ARE luciferase reporter assay in HNDFs. It is filed as cell-based, human. As to conditions: 6 h. The protocol:
ARE promoter activity was measured using a dual-luciferase reporter assay system (Promega, Madison, WI). […] Cells were then transfected with ARE plasmid (Qiagen, Hilden, Germany) using Lipofectamine 2000 (Invitrogen) and incubated for 36 h. […] The cell lysate was prepared and incubated with luciferase agents and the relative luminescence intensity was quantified using a spectrophotometer (Hidex Oy, Turku, Finland).
(A reporter such as luciferase makes a cellular process visible.)

Test [5] has as its system SIRT-1, SIRT-3 and SIRT-6 mRNA. As to the kind of experiment: Q-PCR of SIRT genes in HNDFs. It is filed as cell-based, human. To be noted: ANM 10 μM, 72 h. The protocol: Total RNA was extracted from cultured HNDFs using Trizol Reagent (Thermo Fisher Scientific). Q-PCR analysis was performed using Applied Biosystems detection instruments and software. Forward and reverse primers (10 μM), and the working solution SYBR green, was used as a PCR master mix, under the following conditions: 96°C for 3 minutes followed by 40 cycles at 96°C for 1 minute, 50°C for 30 seconds and 72°C for 90 seconds. GAPDH was used as an internal standard to control for variability in amplification because of differences in starting mRNA concentrations. The copy number of each transcript was calculated as the relative copy number normalized by GAPDH copy number.

Test [6] concerns C. elegans wild type Bristol N2. Kind of test: Stress-resistance assay (Juglone) in C. elegans. It is filed as in vivo, Caenorhabditis elegans. To be noted: pretreatment 10 μM for 3 days, then Juglone 250 μM for 2.5, 3.5 and 4.5 h. The protocol: The wild type Bristol N2 strain was used in this study. C. elegans and Escherichia coli OP50 strain were obtained from the Caenorhabditis Genetic Center, University of Minnesota (Minneapolis-St. Paul, MN). Worms were maintained at 20°C on nematode growth medium (NGM). Hatched worms (L1-stage larvae) were transferred to fresh agar plates and cultured with E. coli OP50 as a food source until they reached the L4 larvae stage. Synchronization of worm cultures was achieved by hypochlorite treatment of gravid hermaphrodites.
Age synchronized L1 larvae were incubated with liquid S-basal medium containing E. coli OP50 at a density of 1 × 10^9 cells. Ml and 10 and 20 μM ANM or 0.01% DMSO (vehicle control) for 3 days. Subsequently, adult worms were subjected to oxidative stress assay. To induce oxidative stress, worms were incubated with Juglone (5-hydroxyl-1,4-naphthoquinone; Sigma), an ROS-generating agent. ANM treated and control worms were transferred to S-basal medium containing 250 μM Juglone, and incubated from 2.5, 3.5 and 4.5 h. After treatment, viable worms were scored. […] The test was performed triplicate.

Structures are written as SMILES.

Turning to `C=C(CCC(C)C1CCC2C3=C(C(=O)C(O)C21C)C1(C)CCC(O)C(C)C1CC3)C(C)C(=O)O` (stereo not shown) [ANM, antcin M], in the test on HNDFs [1], the IC50 is above 50 µM. The “cell population in the G0/G1 phase” value in the test on HNDFs [2] is given as 49.5%. In addition, the “free-radical scavenging in the cell-free system” value in test [3] is given as “failed to scavenge free radicals”. The ARE luciferase activity in test [4] (ANM 10 μM or NAC 100 μM alone, control 1-fold) worked out at 5.8 fold; in test [4] (co-treated with HG (30 mM), ANM 10 μM or NAC 100 μM, HG alone 2.5-fold) it was 8.5 fold. For the same molecule, the “SIRT-1, SIRT-3 and SIRT-6 levels compared to the control group” value in test [5] is on record as “significantly increased”. Also, the “survival rate of worms exposed to oxidative stress” value in test [6] is reported as “significantly increased the survival rate”.
